Entries after “also recorded” stand apart in the source; their conditions may differ. Read-outs that look alike come from different tables or passages of the source.
Legend:
[1] = system: human retinal endothelial cell (HREC); conditions: HREC stimulated by IGF-I and bFGF, ref Grant et al., 1993b, cited from earlier work
From the text: (§1) Int. Jnl. Experimental Diab. […] Printed in Malaysia.

[2] = system: IGF-I mRNA, GH stimulated hepatocytes; conditions: ref Serri et al., 1992, cited from earlier work
From the text: as §1

[3] = system: hypoxia-induced retinal neovascularization; assay: Neonatal rat retinopathy (ROP) model, alternating hypoxia/hyperoxia, histologic scoring of eyes; type: in vivo
Experimental: We evaluated its effect on retinal neovascularization in vivo, using a neonatal rat retinopathy model. Methods: We used, on alternating days, hypoxia (10% O2) and hyperoxia (50% O2) during the first 14 days of neonatal rats, to induce retinal neovascularization. […] At day 18 the eyes were evaluated for the presence of epiretinal and vitreal hemorrhage, neovascularization and epiretinal proliferation.
Int. Jnl. Experimental Diab. Res., Vol. 1, pp. 39-47 Reprints available directly from the publisher Photocopying permitted by license only (C) 2000 OPA (Overseas Publishers Association) N.V. Published by license under the Harwood Academic Publishers imprint, part of The Gordon and Breach Publishing Group. Printed in Malaysia. […] We evaluated its effect on retinal neo- vascularization in vivo, using a neonatal rat retino- pathy model. Methods: We used, on alternating days, hypoxia (10%O2) and hyperoxia (50%02) during the first 14 days of neonatal rats, to induce retinal neovascu- larization. […] At day 18 the eyes were evaluated for the presence of epiretinal and vitreal hemorrhage, neovasculariza- tion and epiretinal proliferation. […] Keywords: Retinopathy of prematurity, angiogenesis, insulin- like growth factor, growth hormone, neovascularization INTRODUCTION Retinal neovascularization is a common feature of several eye diseases characterized by retinal hypoxia, such as proliferative diabetic retino- pathy (PDR) and retinopathy of prematurity (ROP). While the underlying pathology may be different in these conditions, the neovascular pro- cess itself leads to destruction of normal retina and eventually causes blindness. *Corresponding author. Department of Ophthalmology, Hadassah University Hospital, P. O. Box 12000, Jerusalem 91120, Israel. Tel.: +972-2-677 6927, Fax: +972-2-643 4434, e-maih edward@md2.huji.ac.il 39 40 E. AVERBUKH et al. Growth hormone (GH) and insulin-like growth factor I (IGF-I) have been implicated in the pathogenesis of PDR (Lundbaek et al., 1970; Dills et al., 1991). […] High vitre- ous levels of IGF-I and IGF binding proteins (IGFBPs) were found in patients with neovas- cular eye disease related to diabetes and to other ischemic retinal conditions (Meyer-Schwickerath et al., 1993). In addition, a recent study demon- strated the essential role of GH and IGF-I in the development of retinal neovascularization in the ROP model in mice (Smith et al., 1997). Decades ago, before the advent of lasers, elimination of GH production by pituitary ablation was an accepted therapy for PDR (Bradley, Rees and Fager, 1965). […] METHODS Animals Fifty-six neonatal Sabra rats (provided by the Harlan Laboratories, Jerusalem, Israel) were divided into experimental groups of eight to ten animals from mixed litters, not divided ac- cording to gender. At the age of one day the group with the lactating mother were placed in an incubator with a controlled oxygen con- centration. […] All the animals were maintained and treated in ac- cordance with the Association for Research in Vision and Ophthalmology statement on the use of animals in ophthalmic and vision re- search. Retinal neovascularization was induced by alternating oxygen concentrations as pre- viously described (Reynaud and Dorey, 1994; Penn, Tolman and Lowery, 1993). Briefly, the animals were exposed on alternating days to hypoxia (10% O2-24h) and hyperoxia (50% O2-24h) during their first 14 days, followed by four days in room air. Hypoxia was produced by mixing air with nitrogen, and hyperoxia by mixing air with oxygen. A minimal flow of two liters per minute was maintained. […] At day 18 the rats were anesthetized with ether and sacrificed. The eyes were enu- cleated and placed in formaldehyde. […] These areas are prone to ischemia when the oxygen level is lowered.

[4] = system: serum growth hormone (GH); assay: Serum rat growth hormone (RIA) after subcutaneous octreotide injection; type: in vivo
[5] = parameters: method as in Bauer et al., 1982; conditions: ref Bauer et al., 1982; cited from earlier work
From the text: Int. Jnl. Experimental Diab. Res., Vol. 1, pp. 39-47 Reprints available directly from the publisher Photocopying permitted by license only (C) 2000 OPA (Overseas Publishers Association) N.V. Published by license under the Harwood Academic Publishers imprint, part of The Gordon and Breach Publishing Group. Printed in Malaysia.

[6] = Serum octreotide level (RIA) after subcutaneous injection in neonatal rats; conditions: Sabra, rat, sc
[7] = system: serum insulin-like growth factor I (IGF-I); assay: Serum IGF-I (RIA after acid-methanol extraction) after subcutaneous octreotide injection; type: in vivo, rat
[8] = stated for both the octreotide-treated and the control groups

C[C@@H](O)[C@@H]1NC(=O)[C@H](CCCCN)NC(=O)[C@@H](Cc2c[nH]c3ccccc23)NC(=O)[C@H](Cc2ccccc2)NC(=O)[C@@H](NC(=O)[C@H](N)Cc2ccccc2)CSSC[C@@H](C(=O)N[C@H](CO)[C@@H](C)O)NC1=O [octreotide]
Inhibition of [3H]thymidine incorporation ([1]; octreotide level 1.6 μg/l): 15% | Inhibition of [3H]thymidine incorporation ([1]; octreotide level 16 μg/l): 35% | Inhibition of [3H]thymidine incorporation ([1]; octreotide level 164 μg/l): 60% | IGF-I mRNA abundance in cultured GH stimulated hepatocytes ([2]; high concentrations of octreotide (30 and 300 μg/l)): no effect | IGF-I mRNA levels in cultured GH stimulated hepatocytes ([2]; low octreotide concentrations (0.3 and 3 μg/l)): significantly reduced | Effect of injections on retinal pathology ([3]; 0.7 μg/g BW s.c. twice daily, Mann-Whitney Rank Sum Test vs saline): no statistically significant effect | Eyes in which NV was found ([3]; octreotide-treated eyes, day 18 (control 27%)): 35% | Eyes affected by any of epiretinal and vitreal hemorrhages [3, 8]: ~70% | Eyes affected by epiretinal or by vitreal hemorrhages, each one of them [3, 8]: approximately 45% | Eyes affected by PVR ([3]; stated for each group): less than 40% | Retinal neovascularization ([3]; twice-daily injections, neonatal rat ROP model): not inhibited | Serum GH level vs control group ([4]; 9 and 14 hours after injection): returned to baseline; also recorded: comparable | Decrease of serum GH level compared with saline injected animals ([4]; 2 hours after injection, p = 0.002): 40% | Plasma half-life [5]: 1.5 h | half-life ([6]; 0.7 μg/g BW): 1.63 h | level at 9 h ([6]; 20 ug): 26.4 ng/mL | level at 14 h ([6]; 20 ug): 3.2 ng/mL | Serum IGF-I level vs control group ([7]; 2 hours after injection): unchanged; also recorded: similar | Elevation of serum IGF-I level vs control group ([7]; 9 hours after injection, p 0.06): 19% | Elevation of serum IGF-I level vs control group ([7]; 14 hours after injection, p = 0.02): 26%

Source: paper PMC2477751 (International journal of experimental diabetes research, 2000)
